Assays:
[1] = test system: mutant Paracoccus sp. strain Y-1071; assay: Glutamate vs yeast extract supplementation, test tube culture (defined medium), carotenoid by HPLC; assay type: cell-based
Protocol: (§1) In the examples, carotenoids were quantified by high performance liquid chromatography (HPLC) as follows.
(§2) Two columns of Wakosil-II 5 SIL-100 (φ4.6×250 mm) (Wako Pure Chemical Industries, Ltd., Japan) were connected to each other for use as a column. Elution was performed by flowing an n-hexane-tetrahydrofuran-methanol mixed solution (40:20:1), which was a mobile phase, at a flow rate of 1.0 mL/minute at a constant temperature around room temperature. The measurement was performed as follows. Samples were each dissolved in tetrahydrofuran and then diluted 100-fold with the mobile phase. Each dilution was injected in a volume of 20 μL. The column eluate was detected at a wavelength of 470 nm. As a reference for quantification, astaxanthin (SIGMA, Cat. No. A9335) was used. The astaxanthin concentration of the reference solution was determined using the following equation after measuring the absorbance (A) of the reference solution at 477 nm and the area percentage % (B) of the astaxanthin peak at the time of HPLC analysis under the above conditions. Astaxanthin concentration (mg/L)=A/2150×B×100
A medium of the following composition (glucose 20 g/L, dry yeast 5 g/L, potassium dihydrogenphosphate 1.5 g/L, disodium hydrogenphosphate 12-hydrate 3.8 g/L, calcium chloride dihydrate 0.1 g/L, magnesium sulfate 7-hydrate 0.7 g/L, iron sulfate 7-hydrate 3 g/L, pH 7.2) was dispensed in 8 ml volumes into cotton-plugged test tubes having an inner diameter of 18 mm and sterilized in an autoclave at 121° C. for 15 minutes to prepare a test tube medium for seed culture.
Next, a medium of the following composition (glucose 40 g/L, ammonium sulfate 1.5 g/L, potassium dihydrogenphosphate 0.54 g/L, dipotassium hydrogenphosphate 2,78 g/L, calcium chloride dihydrate 1 g/L, sodium chloride 3 g/L, magnesium sulfate 7-hydrate 0.7 g/L, iron sulfate 7-hydrate 5 g/L, zinc sulfate 7-hydrate 2 mg/L, cobalt chloride 6-hydrate 2 mg/L, copper sulfate 5-hydrate 1 mg/L, manganese sulfate 5-hydrate 4 mg/L, sodium molybdate dihydrate 2 mg/L, nickel sulfate 6-hydrate 1 mg/L, sodium selenate 0.5 mg/L, boric acid 5 mg/L, potassium iodide 1 mg/L, cyanocobalamin 1 mg/L, riboflavin 10 mg/L, calcium pantothenate 15 mg/L, pyridoxine hydrochloride salt 20 mg/L, thiamine hydrochloride salt […], ascorbic acid 30 mg/L, folic acid 1 mg/L, niacin 15 mg/L, p-aminobenzoic acid 10 mg/L, biotin 0.1 mg/L, myo-inositol 50 mg/L, choline 10 mg/L, polyether-based defoaming agent 0.2 g/L) was dispensed in 8 ml volumes into cotton-plugged test tubes having an inner diameter of 18 mm (4 tubes in total).
For use in this medium, glucose, inorganic salts, trace metals and vitamins were prepared separately. Glucose, inorganic salts and trace metals were sterilized by heating at 121° C. for 15 minutes, while vitamins were sterilized by filtration. Then, these 4 solutions were mixed together.
Further, one of the test tubes was supplemented with a heat-sterilized aqueous solution of monosodium L-glutamate monohydrate to 6 g/L (32 mmol/L), another tube was supplemented with a heat-sterilized aqueous yeast extract to 6 g/L, another tube was supplemented with the same yeast extract to 12 g/L, and the other tube was supplemented with nothing. Finally, the mediums in the tubes were aseptically supplemented with 12% aqueous ammonia to give pH 7.2.
The mutant Paracoccus sp. strain Y-1071 selected in Example 3 was inoculated into the test tube medium for seed culture and then cultured with shaking at 30° C. for 2 days at 300 spm. The resulting culture solution was then inoculated in 0.1 ml volumes into the 4 test tube media and cultured with shaking at 3(1° C. for 3 days at 300 spm.
Each culture solution was measured for its carotenoid concentration by HPLC.

[2] = test system: Paracoccus sp. strain A-581-1 (FERM BP-4671); assay: Glutamate supplementation, 5 L fermentation tank culture, carotenoid by HPLC; assay type: cell-based
Protocol: as §1, §2
A medium of the following composition (sucrose 20 g/L, filtered corn steep liquor 5 g/L, potassium dihydrogenphosphate 0.54 g/L, dipotassium hydrogenphosphate 12-hydrate 2.78 g/L, calcium chloride dihydrate 5.0 g/L, magnesium sulfate 7-hydrate 0.7 g/L, iron sulfate 7-hydrate 3.0 g/L, alcohol-based […] agent 0.2 g/L, pH 7.5) was dispensed in 100 ml volumes into 500 mL cotton-plugged Erlenmeyer flasks and sterilized in an autoclave at 121° C., for 15 minutes to prepare a flask medium for seed culture in 2 flasks.
Next, a medium of the following composition (glucose 40 g/L, corn steep liquor 30 g/L, ammonium sulfate 0.5 g/L, potassium dihydrogenphosphate 2.25 g/L, disodium hydrogenphosphate 12-hydrate 5.7 g/L, calcium chloride dihydrate […], magnesium sulfate 7-hydrate 0.5 g/L, iron sulfate 7-hydrate 5 g/L, alcohol-based defoaming agent 0.5 g/L) was dispensed in 2.0 L volumes into 5 L fermentation tanks (2 tanks in total). One of the fermentation tanks was supplemented with monosodium L-glutamate monohydrate to 15 mmol/L, while the other was supplemented with nothing as a control. These fermentation tanks were sterilized in an autoclave at 121° C. for 30 minutes.
A loopful of Paracoccus sp. strain A-581-1 (FERM BP-4671) was inoculated into the flask medium for seed culture and then cultured with rotary shaking at 27° C. for 2 days at 150 rpm. The resulting culture solution was then inoculated in 90 mL volumes into the individual fermentation tanks, followed by aerobic culture at 27° C. at an aeration volume of 1 vvm for 100 hours. To maintain a pH of 7.1 during culture, the pH was continuously controlled with 20% aqueous sodium hydroxide. Glucose was added in an amount of 30 g on […] day 2 of culture to prevent glucose depletion. At 22 and 29 hours of culture, monosodium L-glutamate monohydrate and ammonium sulfate were added in amounts of 5 g and 3 g, respectively, per liter of the initial medium. The minimum number of agitation rotations was set to 100 rpm, and the number of agitation rotations was varied such that the dissolved oxygen concentration in the culture solution was maintained at 2 to 4 ppm. An alcohol-based defoaming agent was added in an amount of 0.1 g per hour to prevent bubble formation,
At the completion of culture, each culture solution was measured for its carotenoid concentration by HPLC.

[3] = Glutamic acid concentration 15 mmol/L, 100 hours

In the case of `N[C@@H](CCC(=O)O)C(=O)O` [Glutamic acid, glutamic acid], the “produced carotenoid concentration compared to the sample without glutamic acid” value ([1]; glutamic acid 6 g/L (32 mmol/L), yeast extract 6 g/L and 12 g/L) is reported as “higher produced carotenoid concentration”, the “Produced carotenoid concentration, 3-Hydroxyechinenone” value ([1]; supplement 6 g/L, 3 days) is reported as 0.2 mg/L and the “Produced carotenoid concentration, Adonixanthin” value ([1]; supplement 6 g/L, 3 days) is reported as 3.3 mg/L. The “Produced carotenoid concentration, Astaxanthin” value ([1]; supplement 6 g/L, 3 days) was 13.7 mg/L, the “Produced carotenoid concentration, Asteroidenone” value ([1]; supplement 6 g/L, 3 days) was 0.2 mg/L and the “Produced carotenoid concentration, Canthaxanthin” value ([1]; supplement 6 g/L, 3 days) was 1.8 mg/L. For the same compound, the “Produced carotenoid concentration, Echinenone” value ([1]; supplement 6 g/L, 3 days) was 0.9 mg/L, the “Produced carotenoid concentration, Phoenicoxanthin” value ([1]; supplement 6 g/L, 3 days) was 4.1 mg/L and the “Produced carotenoid concentration, Total Carotenoid” value ([1]; supplement 6 g/L, 3 days) was 26.3 mg/L. For the same compound, the “Produced carotenoid concentration, Zeaxanthin” value ([1]; supplement 6 g/L, 3 days) was 0.06 mg/L, the “Produced carotenoid concentration, β-Carotene” value ([1]; supplement 6 g/L, 3 days) was 2.0 mg/L and the “Produced carotenoid concentration, β-Cryptoxanthin” value ([1]; supplement 6 g/L, 3 days) was 0.02 mg/L. For the same compound, the “produced carotenoid concentration compared to the sample without glutamic acid” value ([2]; 15 mmol/L) was “higher produced carotenoid concentration”, the 3-Hydroxyechinenone [2, 3] was 0.05 mg/L and the Adonixanthin [2, 3] was 2.10 mg/L. It also gave an Astaxanthin [2, 3] of 5.97 mg/L, an Asteroidenone [2, 3] of 0.02 mg/L and a Canthaxanthin [2, 3] of 1.22 mg/L. The Echinenone [2, 3] was 0.51 mg/L, the Phoenicoxanthin [2, 3] was 2.01 mg/L and the “Total carotenoid” value [2, 3] was 13.68 mg/L. It also gave a Zeaxanthin [2, 3] of 0.03 mg/L, a β-Carotene [2, 3] of 1.76 mg/L and a β-Cryptoxanthin [2, 3] of 0.01 mg/L.

From patent US8993282B2, “Carotenoid fermentation method” (JX Nippon Oil & Energy Corporation, priority 2008, dated 2015)
